# Reference: ChEMBL document CHEMBL4765403, “Augmentation of the antitumor effects of PARP inhibitors in triple-negative breast cancer via degradation by hydrophobic tagging modulation” (Eur J Med Chem, 2020)
# The source made the active and inactive calls. The rule behind the calls is not given here.
# Key:
# [1] = target: Poly [ADP-ribose] polymerase 1 (Homo sapiens) (UniProt P09874); experiment: Induction of PARP1 degradation in human MDA-MB-231 cells at 5 uM incubated for 48 hrs in presence 5 to 10 uM PARP1 inhibitor olaparib by Western blot analysis; format: cell-based
# Chain of Poly [ADP-ribose] polymerase 1 (Homo sapiens) (P09874 whole entry): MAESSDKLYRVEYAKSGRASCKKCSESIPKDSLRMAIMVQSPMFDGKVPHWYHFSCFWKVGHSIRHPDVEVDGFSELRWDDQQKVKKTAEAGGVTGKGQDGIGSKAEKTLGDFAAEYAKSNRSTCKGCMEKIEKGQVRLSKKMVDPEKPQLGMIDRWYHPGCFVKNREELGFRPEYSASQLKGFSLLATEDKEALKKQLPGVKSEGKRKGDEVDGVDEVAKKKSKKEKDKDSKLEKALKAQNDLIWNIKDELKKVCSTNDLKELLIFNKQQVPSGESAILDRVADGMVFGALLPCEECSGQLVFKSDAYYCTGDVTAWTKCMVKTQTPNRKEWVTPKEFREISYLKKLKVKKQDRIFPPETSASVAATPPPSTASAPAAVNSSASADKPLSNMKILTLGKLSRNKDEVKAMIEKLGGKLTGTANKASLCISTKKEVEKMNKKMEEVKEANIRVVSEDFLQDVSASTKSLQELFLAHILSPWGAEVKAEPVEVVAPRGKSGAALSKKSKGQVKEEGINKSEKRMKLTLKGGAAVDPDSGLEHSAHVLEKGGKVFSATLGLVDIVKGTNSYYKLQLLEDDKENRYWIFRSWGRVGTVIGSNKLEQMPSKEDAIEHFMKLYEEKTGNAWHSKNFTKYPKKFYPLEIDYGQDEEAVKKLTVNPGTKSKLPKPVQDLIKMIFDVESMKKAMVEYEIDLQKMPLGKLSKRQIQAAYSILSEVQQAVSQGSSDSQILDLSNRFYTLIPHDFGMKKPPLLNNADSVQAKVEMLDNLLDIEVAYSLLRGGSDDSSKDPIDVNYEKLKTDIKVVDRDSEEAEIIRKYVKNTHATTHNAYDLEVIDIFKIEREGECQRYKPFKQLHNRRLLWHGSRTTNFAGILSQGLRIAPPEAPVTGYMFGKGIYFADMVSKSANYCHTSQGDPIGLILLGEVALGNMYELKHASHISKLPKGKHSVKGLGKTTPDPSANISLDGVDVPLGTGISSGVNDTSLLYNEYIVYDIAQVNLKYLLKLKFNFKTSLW
# MDA-MB-231 [2] = experiment: Induction of apoptosis in human MDA-MB-231 cells assessed as upregulation in PUMA gene expression at 5 to 10 uM incubated for 24 to 48 hrs by RT-PCR analysis; format: functional, cell-based; conditions: dose 5-10 µM, time 24-48 hrs
# [3] = target: Poly [ADP-ribose] polymerase 1 (Homo sapiens) (UniProt P09874); experiment: Induction of PARP1 degradation in human MDA-MB-231 cells assessed as fold change in PARP1 protein expression at 5 uM incubated for 48 hrs in presence of caspase I inhibitor, Ac-YVAD-cmk by Western blot analysis relative to control; format: cell-based
# MDA-MB-231 [4] = experiment: Induction of apoptosis in human MDA-MB-231 cells assessed as decrease in Bcl2 protein expression at 5 uM incubated for 24 to 48 hrs by Western blot analysis; format: functional, cell-based; conditions: time 24-48 hrs
# [5] = target: Poly [ADP-ribose] polymerase 1 (Homo sapiens) (UniProt P09874); experiment: Induction of PARP1 degradation in human MDA-MB-231 cells assessed as fold change in PARP1 protein expression at 5 uM pretreated for 2 hrs with pan-caspase inhibitor, Z-VAD-FMK followed by incubation with compound for 48 hrs by Western blot analysis relative to control; format: cell-based
# [6] = target: Poly [ADP-ribose] polymerase 1 (Homo sapiens) (UniProt P09874); experiment: Induction of PARP1 degradation in triple-negative human MDA-MB-231 cells assessed as fold change in PARP1 protein expression at 10 uM incubated for 48 hrs by Western blot analysis relative to control; format: cell-based
# MDA-MB-231 [7] = experiment: Induction of endoplasmic reticulum stress in human MDA-MB-231 cells assessed as upregulation in XBP-1s gene expression at 5 to 10 uM incubated for 24 to 48 hrs by RT-PCR analysis; format: functional, cell-based; conditions: dose 5-10 µM, time 24-48 hrs
# [8] = target: Poly [ADP-ribose] polymerase 1 (Homo sapiens) (UniProt P09874); experiment: Induction of PARP1 degradation in triple negative human MDA-MB-231 cells assessed as fold change in PARP1 protein expression at 5 uM incubated for 48 hrs by Western blot analysis relative to control; format: cell-based
# [9] = target: Poly [ADP-ribose] polymerase 1 (Homo sapiens) (UniProt P09874); experiment: Induction of PARP1 degradation in human MDA-MB-231 cells assessed as fold change in PARP1 protein expression at 5 uM pretreated with caspase I inhibitor, Ac-YVAD-cmk for 2 hrs followed by incubation with compound for 48 hrs by Western blot analysis relative to control; format: cell-based
# [10] = target: Poly [ADP-ribose] polymerase 1 (Homo sapiens) (UniProt P09874); experiment: Induction of PARP1 degradation in human MDA-MB-231 cells at 5 uM incubated for 48 hrs in presence of proteasome inhibitor, bortezomib by immunoblotting analysis; format: cell-based
# [11] = target: Poly [ADP-ribose] polymerase 1 (Homo sapiens) (UniProt P09874); experiment: Induction of PARP1 degradation in human HCC1937 cells harboring BRCA mutation assessed as fold change in PARP1 protein expression at 5 uM incubated for 48 hrs by Western blot analysis relative to control; format: cell-based
# [12] = target: Poly [ADP-ribose] polymerase 1 (Homo sapiens) (UniProt P09874); experiment: Induction of PARP1 degradation in triple-negative human MDA-MB-231 cells assessed as fold change in PARP1 protein expression at 0.5 uM incubated for 48 hrs by Western blot analysis relative to control; format: cell-based
# [13] = target: Poly [ADP-ribose] polymerase 1 (Homo sapiens) (UniProt P09874); experiment: Induction of PARP1 degradation in triple-negative human MDA-MB-231 cells assessed as fold change in PARP1 protein expression at 0.01 uM incubated for 48 hrs by Western blot analysis relative to control; format: cell-based
# MDA-MB-468 [14] = experiment: Induction of apoptosis in human MDA-MB-468 cells assessed as decrease in Bcl2 protein expression at 5 uM incubated for 48 hrs by Western blot analysis; format: functional, cell-based
# [15] = target: Poly [ADP-ribose] polymerase 1 (Homo sapiens) (UniProt P09874); experiment: Induction of PARP1 degradation in triple-negative human MDA-MB-231 cells assessed as fold change in PARP1 protein expression at 5 uM incubated for 24 hrs by Western blot analysis relative to control; format: cell-based
# MDA-MB-231 [16] = experiment: Induction of apoptosis in human MDA-MB-231 cells assessed as increase in cytochrome C protein expression at 5 uM incubated for 24 to 48 hrs by Western blot analysis; format: functional, cell-based; conditions: time 24-48 hrs
# [17] = target: Poly [ADP-ribose] polymerase 1 (Homo sapiens) (UniProt P09874); experiment: Induction of PARP1 degradation in human MDA-MB-231 cells at 5 uM pretreated for 2 hrs with proteasome inhibitor, carfilzomib for 2 hrs followed by incubation with compound for 48 hrs by immunoblotting analysis; format: cell-based
# [18] = target: Poly [ADP-ribose] polymerase 1 (Homo sapiens) (UniProt P09874); experiment: Induction of PARP1 degradation in human MDA-MB-231 cells assessed as fold change in PARP1 protein expression at 5 uM incubated for 48 hrs in presence of pan-caspase inhibitor, Z-VAD-FMK by Western blot analysis; format: cell-based
# [19] = target: Poly [ADP-ribose] polymerase 1 (Homo sapiens) (UniProt P09874); experiment: Induction of PARP1 degradation in human MDA-MB-468 cells assessed as fold change in PARP1 protein expression at 5 uM pretreated for 2 hrs with pan-caspase inhibitor, Z-VAD-FMK followed by incubation with compound for 48 hrs by Western blot analysis relative to control; format: cell-based
# MDA-MB-231 [20] = experiment: Induction of endoplasmic reticulum stress in human MDA-MB-231 cells assessed as increase in CHOP protein expression at 5 uM measured after 24 to 72 hrs by Western blot analysis; format: functional, cell-based; conditions: time 24-72 hrs
# MDA-MB-231 [21] = experiment: Induction of apoptosis in human MDA-MB-231 cells assessed as downregulation in Bcl2 gene expression at 5 to 10 uM incubated for 24 to 48 hrs by RT-PCR analysis; format: functional, cell-based; conditions: dose 5-10 µM, time 24-48 hrs
# [22] = target: Poly [ADP-ribose] polymerase 1 (Homo sapiens) (UniProt P09874); experiment: Induction of PARP1 degradation in triple-negative human MDA-MB-231 cells assessed as fold change in PARP1 protein expression at 2.5 uM incubated for 48 hrs by Western blot analysis relative to control; format: cell-based
# MDA-MB-231 [23] = experiment: Induction of apoptosis in human MDA-MB-231 cells assessed as upregulation in Bax gene expression at 5 to 10 uM incubated for 24 to 48 hrs by RT-PCR analysis; format: functional, cell-based; conditions: dose 5-10 µM, time 24-48 hrs
# [24] = target: Poly [ADP-ribose] polymerase 1 (Homo sapiens) (UniProt P09874); experiment: Induction of PARP1 degradation in triple-negative human MDA-MB-231 cells assessed as fold change in PARP1 protein expression at 0.01 uM incubated for 24 hrs by Western blot analysis relative to control; format: cell-based
# [25] = target: Poly [ADP-ribose] polymerase 1 (Homo sapiens) (UniProt P09874); experiment: Induction of PARP1 degradation in triple-negative human MDA-MB-231 cells assessed as fold change in PARP1 protein expression at 0.1 uM incubated for 24 hrs by Western blot analysis relative to control; format: cell-based
# MDA-MB-468 [26] = experiment: Induction of apoptosis in human MDA-MB-468 cells assessed as increase in p21 protein expression at 5 uM incubated for 48 hrs by Western blot analysis; format: functional, cell-based
# MDA-MB-231 [27] = experiment: Induction of apoptosis in human MDA-MB-231 cells assessed as apoptotic body formation at 5 uM incubated for 24 to 48 hrs by transmission electron microscopy; format: functional, cell-based; conditions: time 24-48 hrs
# MDA-MB-468 [28] = experiment: Induction of endoplasmic reticulum stress in human MDA-MB-468 cells assessed as increase in CHOP protein expression at 5 uM incubated for 48 hrs by Western blot analysis; format: functional, cell-based
# [29] = target: Poly [ADP-ribose] polymerase 1 (Homo sapiens) (UniProt P09874); experiment: Induction of PARP1 degradation in human MDA-MB-231 cells at 2.5 uM incubated for 48 hrs by Western blot analysis relative to control; format: cell-based
# [30] = target: Poly [ADP-ribose] polymerase 1 (Homo sapiens) (UniProt P09874); experiment: Induction of PARP1 degradation in human MDA-MB-468 cells assessed as fold change in PARP1 protein expression at 5 uM pretreated with caspase I inhibitor, Ac-YVAD-cmk for 2 hrs followed by incubation with compound for 48 hrs by Western blot analysis relative to control; format: cell-based
# MDA-MB-231 [31] = experiment: Induction of autophagy in human MDA-MB-231 cells assessed as upregulation in LC3B gene expression at 5 to 10 uM measured after 24 to 48 hrs by RT-PCR analysis; format: functional, cell-based; conditions: dose 5-10 µM, time 24-48 hrs
smiles,measurement,setting,value
O=C(CC1c2ccccc2-c2ccccc21)N1CCN(C(=O)c2cc(Cc3n[nH]c(=O)c4ccccc34)ccc2F)CC1,Activity,[1],inactive
same,Activity,MDA-MB-231 [2],Active
same,fold change (FC),[3],0.3
same,Activity,MDA-MB-231 [4],Active
same,fold change (FC),[5],0.3
same,fold change (FC),[6],0.1
same,Activity,MDA-MB-231 [7],Active
same,fold change (FC),[8],0.1
same,fold change (FC),[9],0.3
same,Activity,[10],inactive
same,fold change (FC),[11],0
same,fold change (FC),[12],0.6
same,fold change (FC),[13],0.7
same,Activity,MDA-MB-468 [14],Active
same,fold change (FC),[15],0.8
same,Activity,MDA-MB-231 [16],Active
same,Activity,[17],inactive
same,fold change (FC),[18],0.3
same,fold change (FC),[19],0.4
same,Activity,MDA-MB-231 [20],Active
same,Activity,MDA-MB-231 [21],Active
same,fold change (FC),[22],0.1
same,Activity,MDA-MB-231 [23],Active
same,fold change (FC),[24],0.9
same,fold change (FC),[25],0.9
same,Activity,MDA-MB-468 [26],Active
same,Activity,MDA-MB-231 [27],Active
same,Activity,MDA-MB-468 [28],Active
same,Activity,[29],60%
same,fold change (FC),[30],0.2
same,Activity,MDA-MB-231 [31],Active
